Measurements from patent US4218395A, “Ureylene naphthalene sulfonic acids” (American Cyanamid Company, priority 1978, dated 1980).
Where a name gives a salt, the structure may show the parent alone.

What was measured:
shunt pathway = assay: Test, Code 036 (C-Shunt inhibitor): lysis of human erythrocytes via shunt pathway activated by cobra venom factor; type: cell-based; details: activity in wells, twofold serial dilution assay; higher well number indicates higher activity
From the text: (§1) An active inhibitor protects C2 from C1 and C4; (ii) Test, Code 035 (C3-C9 inhibitor)-This test determines the ability of the late components of human complement (C3-C9) to lyse EAC 142 in the presence of appropriate dilutions of the test compound. An active inhibitor protects EAC 142 from lysis by human C3-C9; (iii) Test, Code 036 (C-Shunt inhibitor)--In this test human erythrocytes rendered fragile are lysed in autologous serum via the shunt pathway activated by cobra venom factor in the presence of appropriate dilutions of the test compound. Inhibition of the shunt pathway results in failure of lysis; (iv) Forssman Vasculitis Test--Here, the well known complement dependent lesion, Forssman vasculitis, is produced in guinea pigs by intradermal injection of rabbit anti-Forssman antiserum. The lesion is measured in terms of diameter, edema and hemorrhage and the extent to which a combined index of these is inhibited by prior intraperitoneal injection of the test compound at 200 mg/kg is then reported, unless otherwise stated; (v) Forssman Shock Test--Lethal shock is produced in guinea pigs by an i.v. injection of anti-Forssman antiserum and the harmonic mean death time of treated guinea pigs is compared with that of simultaneous controls; (vi) Complement Level Reduction Test--In this test, the above dosed guinea pigs, or others, are bled for serum and the complement level is determined in undiluted serum by the capillary tube method of U.S. Pat. No. 3,876,376 and compared to undosed control guinea pigs; and (vii) Cap 50 Test--Here, appropriate amounts of the test compound are added to a pool of guinea pig serum in vitro, after which the undiluted serum capillary tube assay referred to above is run. The concentration of compound inhibiting 50% is reported.
(§2) With reference to Table I, guinea pigs weighing about 300 g were dosed intravenously (i.v.) or intraperitoneally (i.p.) with 200 mg/kg of the test compound dissolved in saline and adjusted to pH 7-8. […] Percent inhibition was calculated by comparison with simultaneous controls. […]

human C1 = target: T1, human C1 (Homo sapiens, UniProt P09871); assay: Test, Code 026 (C1 inhibitor); type: biochemical; details: activity in wells, twofold serial dilution assay; higher well number indicates higher activity
T1 construct: hemolytic test of fluid-phase C2 destruction in presence of C4
T1 sequence (P09871 16-688): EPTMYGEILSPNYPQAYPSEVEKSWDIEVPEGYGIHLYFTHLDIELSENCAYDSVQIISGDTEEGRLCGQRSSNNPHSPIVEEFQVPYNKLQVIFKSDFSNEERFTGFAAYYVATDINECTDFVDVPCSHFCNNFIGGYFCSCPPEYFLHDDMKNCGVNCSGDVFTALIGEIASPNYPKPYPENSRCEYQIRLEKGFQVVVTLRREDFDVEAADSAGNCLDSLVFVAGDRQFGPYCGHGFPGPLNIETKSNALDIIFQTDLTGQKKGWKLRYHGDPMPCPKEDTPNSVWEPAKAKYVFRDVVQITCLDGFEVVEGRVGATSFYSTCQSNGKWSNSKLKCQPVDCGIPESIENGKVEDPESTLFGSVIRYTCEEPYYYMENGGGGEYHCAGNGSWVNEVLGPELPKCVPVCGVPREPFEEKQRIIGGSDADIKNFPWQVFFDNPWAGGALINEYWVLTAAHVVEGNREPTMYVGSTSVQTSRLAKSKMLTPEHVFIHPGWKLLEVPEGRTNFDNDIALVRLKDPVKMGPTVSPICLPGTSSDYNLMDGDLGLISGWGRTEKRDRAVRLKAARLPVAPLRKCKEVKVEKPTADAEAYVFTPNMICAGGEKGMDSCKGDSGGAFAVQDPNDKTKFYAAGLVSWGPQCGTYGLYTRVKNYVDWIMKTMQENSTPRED
T1 sequence (P00736 18-705 partner): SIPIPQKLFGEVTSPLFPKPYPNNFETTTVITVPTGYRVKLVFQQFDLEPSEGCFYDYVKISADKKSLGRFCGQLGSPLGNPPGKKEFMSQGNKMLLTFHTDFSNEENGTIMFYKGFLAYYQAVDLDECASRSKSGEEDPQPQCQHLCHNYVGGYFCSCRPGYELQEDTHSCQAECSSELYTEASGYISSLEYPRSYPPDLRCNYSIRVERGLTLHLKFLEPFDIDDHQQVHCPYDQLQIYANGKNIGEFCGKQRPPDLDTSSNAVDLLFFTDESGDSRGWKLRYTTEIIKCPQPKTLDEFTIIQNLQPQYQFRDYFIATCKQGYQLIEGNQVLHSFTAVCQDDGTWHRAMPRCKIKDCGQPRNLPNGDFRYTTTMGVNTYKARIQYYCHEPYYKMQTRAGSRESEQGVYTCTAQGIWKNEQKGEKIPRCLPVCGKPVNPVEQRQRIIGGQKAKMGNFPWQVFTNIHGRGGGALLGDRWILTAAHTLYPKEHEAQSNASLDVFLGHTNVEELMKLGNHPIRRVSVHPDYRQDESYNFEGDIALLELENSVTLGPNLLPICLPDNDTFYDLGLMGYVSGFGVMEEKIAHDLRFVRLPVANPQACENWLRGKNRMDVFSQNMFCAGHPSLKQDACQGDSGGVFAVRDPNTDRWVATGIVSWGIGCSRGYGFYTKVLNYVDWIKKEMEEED
T1 sequence (P02745 23-245 partner): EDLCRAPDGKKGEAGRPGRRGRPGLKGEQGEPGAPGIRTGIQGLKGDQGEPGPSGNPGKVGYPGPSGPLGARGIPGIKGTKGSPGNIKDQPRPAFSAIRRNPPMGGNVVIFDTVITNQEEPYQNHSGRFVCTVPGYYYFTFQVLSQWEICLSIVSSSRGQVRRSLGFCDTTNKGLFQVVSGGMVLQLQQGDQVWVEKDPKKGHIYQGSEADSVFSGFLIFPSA
T1 sequence (P02746 28-253 partner): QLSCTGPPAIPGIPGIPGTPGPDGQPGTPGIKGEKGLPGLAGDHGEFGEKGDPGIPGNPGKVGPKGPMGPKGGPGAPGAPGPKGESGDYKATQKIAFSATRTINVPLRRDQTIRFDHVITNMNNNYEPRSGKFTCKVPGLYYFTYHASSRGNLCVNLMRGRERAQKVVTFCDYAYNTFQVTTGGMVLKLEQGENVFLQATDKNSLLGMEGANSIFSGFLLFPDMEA
T1 sequence (P02747 29-245 partner): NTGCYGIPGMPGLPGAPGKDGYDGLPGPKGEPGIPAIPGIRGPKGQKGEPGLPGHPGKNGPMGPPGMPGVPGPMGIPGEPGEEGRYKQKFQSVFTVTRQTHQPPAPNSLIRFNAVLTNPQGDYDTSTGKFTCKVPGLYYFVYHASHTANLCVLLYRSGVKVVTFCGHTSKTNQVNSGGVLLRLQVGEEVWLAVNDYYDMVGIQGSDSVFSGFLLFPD
From the text: as §1, §2

whole complement = assay: In vivo complement inhibition in dosed guinea pigs (whole complement, capillary tube assay); details: i.p., 200 mg/kg
From the text: as §1
With reference to Table I, guinea pigs weighing about 300 g were dosed intravenously (i.v.) or intraperitoneally (i.p.) with 200 mg/kg of the test compound dissolved in saline and adjusted to pH 7-8. One hour after dosing, the guinea pigs were decapitated, blood was collected and the serum separated. The serum was tested for whole complement using the capillary tube assay. Percent inhibition was calculated by comparison with simultaneous controls. The results appear in Table I together with results of tests, code 026, 035, 036, Cap 50, % inhibition and Forssman shock.

[1] = test system: late components of human complement (C3-C9); assay: Test, Code 035 (C3-C9 inhibitor): lysis of EAC 142; type: cell-based; details: activity in wells, twofold serial dilution assay; higher well number indicates higher activity
From the text: as §1, §2

complement system = details: British Journal of Experimental Pathology, 33, 327-339 (1952); Clin. Exp. Immunol., 10, 127-138 (1972); cited from earlier work
[2] = test system: hereditary angioneurotic edema; details: The New England Journal of Medicine, 286, 808-812 (1972); cited from earlier work
human serum complement [3] = details: as judged by the reduction in total hemolytic complement activity, Pathologie Biologie, 25, 33-36 (1977); cited from earlier work
human serum complement [4] = details: as judged by the reduction in total hemolytic complement activity, Pathologie Biologie, 25, 33-36 (1977); cited from earlier work; remark: listed apart in the source

Compound	Shunt Inhibition 036* Wells (shunt pathway)	C1 026* Wells (human C1)	In Vivo Activity (Guinea Pig) % Inhibition, Intraperitoneal, 30 minutes (whole complement)	In Vivo Activity (Guinea Pig) % Inhibition, Intraperitoneal, 60 minutes (whole complement)	In Vivo Activity (Guinea Pig) % Inhibition, Intraperitoneal, 120 minutes (whole complement)	C-Late 035* Wells [1]	effect on the complement system (complement system)	treatment of hereditary angioneurotic edema [2]	further results
O=C(Nc1cc(C(=O)Nc2cc(C(=O)O)cc(C(=O)Nc3ccc(S(=O)(=O)O)c4cc(S(=O)(=O)O)cc(S(=O)(=O)O)c34)c2)cc(C(=O)Nc2cc(C(=O)O)cc(C(=O)Nc3ccc(S(=O)(=O)O)c4cc(S(=O)(=O)O)cc(S(=O)(=O)O)c34)c2)c1)Nc1cc(C(=O)Nc2cc(C(=O)O)cc(C(=O)Nc3ccc(S(=O)(=O)O)c4cc(S(=O)(=O)O)cc(S(=O)(=O)O)c34)c2)cc(C(=O)Nc2cc(C(=O)O)cc(C(=O)Nc3ccc(S(=O)(=O)O)c4cc(S(=O)(=O)O)cc(S(=O)(=O)O)c34)c2)c1 [3,3',3",3'"-{Ureylenebis[s-phenenylbis(carbonylimino]}tetrakis[5-(4,6,8-trisulfo-1-naphthyl)carbamoyl]benzoic acid dodecasodium salt]	+5 Wells	+7 Wells	-90%	-94%	-89%	+2 Wells			
Nc1cc(C(=O)Nc2cc(C(=O)O)cc(C(=O)Nc3ccc(S(=O)(=O)O)c4cc(S(=O)(=O)O)cc(S(=O)(=O)O)c34)c2)cc(C(=O)Nc2cc(C(=O)O)cc(C(=O)Nc3ccc(S(=O)(=O)O)c4cc(S(=O)(=O)O)cc(S(=O)(=O)O)c34)c2)c1 [3,3'-[5-Amino-m-phenylenebis(carbonylimino)]bis{5-[4,6,8-trisulfo-1-naphthyl)carbamoyl]}benzoic acid hexasodium salt]	+2 Wells	+4 Wells	-40%	-61%	-61%	+2 Wells			
Cc1ccc(C(=O)Nc2ccc(S(=O)(=O)O)c3cc(S(=O)(=O)O)cc(S(=O)(=O)O)c23)cc1NC(=O)c1cc(NC(=O)Nc2cc(C(=O)Nc3cc(C(=O)Nc4ccc(S(=O)(=O)O)c5cc(S(=O)(=O)O)cc(S(=O)(=O)O)c45)ccc3C)cc(C(=O)Nc3cc(C(=O)Nc4ccc(S(=O)(=O)O)c5cc(S(=O)(=O)O)cc(S(=O)(=O)O)c45)ccc3C)c2)cc(C(=O)Nc2cc(C(=O)Nc3ccc(S(=O)(=O)O)c4cc(S(=O)(=O)O)cc(S(=O)(=O)O)c34)ccc2C)c1 [8,8',8",8'"-{Ureylenebis{s-phenenylbis[carbonylimino(4-methyl-3,1-phenylene)carbonylimino]}}tetra-1,3,5-naphthalenetrisulfonic acid dodecasodium salt]	+4 Wells	+6 Wells	-62%	-84%	-95%	+3 Wells			
Cc1ccc(C(=O)Nc2ccc(S(=O)(=O)O)c3cc(S(=O)(=O)O)cc(S(=O)(=O)O)c23)cc1NC(=O)c1cccc(NC(=O)Nc2cccc(C(=O)Nc3cc(C(=O)Nc4ccc(S(=O)(=O)O)c5cc(S(=O)(=O)O)cc(S(=O)(=O)O)c45)ccc3C)c2)c1 [Suramin]							competitive inhibitor of the complement system	used with success	
Nc1ccc2cc(S(=O)(=O)O)cc(O)c2c1N=Nc1ccc(NC(=O)Nc2ccc(N=Nc3c(N)ccc4cc(S(=O)(=O)O)cc(O)c34)c(S(=O)(=O)O)c2)cc1S(=O)(=O)O [chlorazol fast pink, 3,3'-ureylenebis-[6-(2-amino-8-hydroxy-6-sulfo-1-naphthylazo)]benzenesulfonic acid, tetrasodium salt]							anticomplementary effect		
NCCCCCC(=O)O [epsilon-aminocaproic acid]								used with success	
NC[C@H]1CC[C@H](C(=O)O)CC1 [tranexamic acid]								used with success	
heparin							anticomplementary effect		
pentosan-poly-sulfoester									anticomplementary activity on human serum in vitro (human serum complement [3]): anticomplementary activity; anticomplementary activity on human serum in vivo (human serum complement [4]): anticomplementary activity
